Common to all, as to assay: Large panel kinase profiling
What all share (type): biochemical
Common to all, as to conditions: 1 μM test article, 1 mM ATP

Test [1] deals with T1, CDK16/T (Homo sapiens, UniProt Q00536).
T1 construct: AssayQuant Technologies, Inc. (ran the panel)
Put shortly: (§1)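 CSox-Sensor fluorescence readout; test article 1 μM, ATP 1 mM, 30° C.; kinetic reads at 1-min intervals, Ex 360/Em 485 nm.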

In test [2] the target is T2, CSNK1D/CK1D (Homo sapiens, UniProt P48730).
T2 construct: AssayQuant Technologies, Inc. (service laboratory)
Put shortly: as §1

In test [3] the target is T3, DAPK3 (Homo sapiens, UniProt O43293).
T3 construct: AssayQuant Technologies, Inc. (service laboratory)
Put shortly: as §1

For test [4], the target named is T4, DYRK1B (Homo sapiens, UniProt Q9Y463).
T4 construct: AssayQuant Technologies, Inc. (service laboratory)
Put shortly:
as §1

The target in test [5] is T5, EPHB1 (Homo sapiens, UniProt P54762).
T5 sequence (P54762 18-984): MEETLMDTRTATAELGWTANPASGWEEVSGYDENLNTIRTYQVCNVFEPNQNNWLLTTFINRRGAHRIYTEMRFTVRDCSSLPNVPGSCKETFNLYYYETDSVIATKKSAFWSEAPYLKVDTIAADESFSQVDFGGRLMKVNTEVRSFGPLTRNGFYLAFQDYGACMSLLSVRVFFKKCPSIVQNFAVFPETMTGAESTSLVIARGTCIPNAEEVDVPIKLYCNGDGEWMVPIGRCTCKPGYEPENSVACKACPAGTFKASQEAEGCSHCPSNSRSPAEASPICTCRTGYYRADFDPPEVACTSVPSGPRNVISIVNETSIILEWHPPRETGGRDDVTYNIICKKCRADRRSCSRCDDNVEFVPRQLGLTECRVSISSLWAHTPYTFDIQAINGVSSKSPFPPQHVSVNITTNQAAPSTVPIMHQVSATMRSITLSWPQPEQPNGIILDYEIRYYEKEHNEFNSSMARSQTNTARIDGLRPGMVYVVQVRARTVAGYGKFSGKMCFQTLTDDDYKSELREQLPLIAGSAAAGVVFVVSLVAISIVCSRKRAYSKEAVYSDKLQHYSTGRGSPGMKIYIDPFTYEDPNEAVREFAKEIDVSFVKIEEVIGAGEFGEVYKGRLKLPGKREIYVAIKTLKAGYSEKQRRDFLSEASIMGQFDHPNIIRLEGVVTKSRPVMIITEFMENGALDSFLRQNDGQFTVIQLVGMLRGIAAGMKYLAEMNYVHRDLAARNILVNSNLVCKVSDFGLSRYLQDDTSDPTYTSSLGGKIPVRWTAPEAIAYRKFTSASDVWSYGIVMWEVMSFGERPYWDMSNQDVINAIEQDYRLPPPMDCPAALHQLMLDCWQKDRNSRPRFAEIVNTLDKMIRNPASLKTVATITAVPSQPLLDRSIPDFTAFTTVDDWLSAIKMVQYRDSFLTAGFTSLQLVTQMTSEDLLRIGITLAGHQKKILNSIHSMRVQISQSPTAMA
Put shortly: as §1

Test [6] concerns the target T6, HIPK2 (Homo sapiens, UniProt Q9H2X6).
T6 construct: AssayQuant Technologies, Inc. (service provider)
Put shortly:
as §1

Test [7] has as its target T7, JAK1(JH1) (Homo sapiens, UniProt P23458).
T7 construct: JAK1(JH1)
The method, boiled down: as §1

Test [8] concerns the target T8, MAPK10/JNK3 (Homo sapiens, UniProt P53779).
T8 construct: AssayQuant Technologies, Inc. (service provider)
The method, boiled down:
as §1

In test [9] the target is PRKAA1/AMPK111 (Homo sapiens, UniProt Q13131). Put shortly:
as §1

Test [10] addresses PRKACB (Homo sapiens, UniProt P22694). The method, boiled down:
as §1

The target in test [11] is RAF1 (Homo sapiens, UniProt P04049). The method, boiled down:
as §1

The target of test [12] is T9, RPS6KA4/MSK2 (Homo sapiens, UniProt O75676).
T9 construct: AssayQuant Technologies, Inc. (contract assay)
The method, boiled down:
as §1

Test [13] has as its target T10, SGK1 (Homo sapiens, UniProt O00141).
T10 construct: AssayQuant Technologies, Inc. (contract assay)
T10 sequence (O00141 1-431): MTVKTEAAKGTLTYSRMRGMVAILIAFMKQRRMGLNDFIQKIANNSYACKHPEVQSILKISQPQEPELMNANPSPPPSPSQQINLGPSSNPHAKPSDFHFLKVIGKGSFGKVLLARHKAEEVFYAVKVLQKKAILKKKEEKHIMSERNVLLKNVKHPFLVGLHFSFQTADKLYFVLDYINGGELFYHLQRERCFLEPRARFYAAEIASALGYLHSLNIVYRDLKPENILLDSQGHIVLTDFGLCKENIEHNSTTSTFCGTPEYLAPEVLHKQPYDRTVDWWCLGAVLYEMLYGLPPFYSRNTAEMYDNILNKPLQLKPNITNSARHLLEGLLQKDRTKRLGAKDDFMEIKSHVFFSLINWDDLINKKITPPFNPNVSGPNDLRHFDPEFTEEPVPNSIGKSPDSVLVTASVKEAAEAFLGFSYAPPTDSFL
Put shortly: as §1

Test [14] concerns the target T11, STK33 (Homo sapiens, UniProt Q9BYT3).
T11 construct: AssayQuant Technologies, Inc. (contract assay)
The method, boiled down:
as §1

Each structure is given as a SMILES string.

Results on three molecules are retold here after patent US20220009920A1 (GB005, Inc., priority 2020, published 2022).

T2 sequence (P48730 whole entry): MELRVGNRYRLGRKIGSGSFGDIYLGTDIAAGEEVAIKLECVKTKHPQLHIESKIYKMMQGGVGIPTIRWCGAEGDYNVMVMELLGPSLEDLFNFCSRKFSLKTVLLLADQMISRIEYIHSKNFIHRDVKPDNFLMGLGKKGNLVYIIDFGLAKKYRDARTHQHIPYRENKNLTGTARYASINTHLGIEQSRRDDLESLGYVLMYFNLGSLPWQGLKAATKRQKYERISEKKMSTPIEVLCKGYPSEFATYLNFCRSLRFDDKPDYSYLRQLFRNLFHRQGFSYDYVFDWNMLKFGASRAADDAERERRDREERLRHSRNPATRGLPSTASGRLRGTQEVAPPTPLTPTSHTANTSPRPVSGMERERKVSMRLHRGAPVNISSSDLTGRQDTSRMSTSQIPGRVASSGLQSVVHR
T11 sequence (Q9BYT3 whole entry, species assumed): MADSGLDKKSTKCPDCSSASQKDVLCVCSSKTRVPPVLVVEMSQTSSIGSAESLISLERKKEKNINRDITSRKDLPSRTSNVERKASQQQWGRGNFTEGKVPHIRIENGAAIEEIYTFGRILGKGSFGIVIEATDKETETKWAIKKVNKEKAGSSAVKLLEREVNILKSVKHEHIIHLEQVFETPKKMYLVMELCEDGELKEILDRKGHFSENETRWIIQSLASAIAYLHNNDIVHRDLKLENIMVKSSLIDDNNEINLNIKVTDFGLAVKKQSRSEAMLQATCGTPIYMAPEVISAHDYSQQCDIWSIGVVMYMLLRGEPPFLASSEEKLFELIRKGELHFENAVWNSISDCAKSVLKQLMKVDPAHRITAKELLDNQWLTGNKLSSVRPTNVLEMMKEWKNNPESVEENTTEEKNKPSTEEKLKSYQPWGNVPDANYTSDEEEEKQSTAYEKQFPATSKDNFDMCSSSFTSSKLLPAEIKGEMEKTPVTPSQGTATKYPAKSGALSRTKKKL
T7 sequence (P23458 875-1153 limits assumed, species assumed): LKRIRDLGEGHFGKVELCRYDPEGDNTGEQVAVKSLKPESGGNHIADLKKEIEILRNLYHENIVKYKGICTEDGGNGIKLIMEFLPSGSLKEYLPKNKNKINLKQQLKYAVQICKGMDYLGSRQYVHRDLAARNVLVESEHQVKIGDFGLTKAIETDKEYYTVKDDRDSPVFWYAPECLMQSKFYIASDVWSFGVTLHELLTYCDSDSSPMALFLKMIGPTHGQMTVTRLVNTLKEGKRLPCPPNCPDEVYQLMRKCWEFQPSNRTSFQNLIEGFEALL
Chain of RAF1 (P04049 whole entry, species assumed): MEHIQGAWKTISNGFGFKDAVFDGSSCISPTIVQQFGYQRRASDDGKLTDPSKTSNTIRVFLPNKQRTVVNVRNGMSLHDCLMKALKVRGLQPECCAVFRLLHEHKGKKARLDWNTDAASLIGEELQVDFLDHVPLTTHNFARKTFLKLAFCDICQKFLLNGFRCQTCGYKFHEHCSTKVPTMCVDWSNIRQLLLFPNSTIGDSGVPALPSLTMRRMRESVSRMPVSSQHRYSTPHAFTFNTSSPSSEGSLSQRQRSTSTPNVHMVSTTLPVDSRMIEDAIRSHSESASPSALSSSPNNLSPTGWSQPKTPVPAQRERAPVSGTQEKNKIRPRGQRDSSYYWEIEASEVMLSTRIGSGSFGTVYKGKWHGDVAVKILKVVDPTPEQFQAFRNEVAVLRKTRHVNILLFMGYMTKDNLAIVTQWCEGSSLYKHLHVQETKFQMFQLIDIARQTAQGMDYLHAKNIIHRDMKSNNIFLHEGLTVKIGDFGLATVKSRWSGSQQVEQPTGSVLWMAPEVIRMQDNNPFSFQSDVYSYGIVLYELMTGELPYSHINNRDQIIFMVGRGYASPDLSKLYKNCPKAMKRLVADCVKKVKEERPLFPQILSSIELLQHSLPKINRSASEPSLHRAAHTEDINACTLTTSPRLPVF
T8 sequence (P53779 whole entry): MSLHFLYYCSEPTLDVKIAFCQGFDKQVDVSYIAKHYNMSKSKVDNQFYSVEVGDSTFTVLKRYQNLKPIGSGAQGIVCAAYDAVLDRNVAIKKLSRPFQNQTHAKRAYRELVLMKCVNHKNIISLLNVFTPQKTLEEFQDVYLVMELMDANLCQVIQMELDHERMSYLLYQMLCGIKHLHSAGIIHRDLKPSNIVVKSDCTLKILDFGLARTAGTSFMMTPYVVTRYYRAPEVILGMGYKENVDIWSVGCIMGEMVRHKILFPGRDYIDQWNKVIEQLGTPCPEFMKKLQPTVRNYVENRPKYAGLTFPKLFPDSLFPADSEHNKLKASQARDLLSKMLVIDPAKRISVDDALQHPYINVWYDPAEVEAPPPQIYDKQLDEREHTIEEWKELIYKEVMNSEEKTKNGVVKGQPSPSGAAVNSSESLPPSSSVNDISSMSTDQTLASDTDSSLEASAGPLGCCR
T6 sequence (Q9H2X6 whole entry, species assumed): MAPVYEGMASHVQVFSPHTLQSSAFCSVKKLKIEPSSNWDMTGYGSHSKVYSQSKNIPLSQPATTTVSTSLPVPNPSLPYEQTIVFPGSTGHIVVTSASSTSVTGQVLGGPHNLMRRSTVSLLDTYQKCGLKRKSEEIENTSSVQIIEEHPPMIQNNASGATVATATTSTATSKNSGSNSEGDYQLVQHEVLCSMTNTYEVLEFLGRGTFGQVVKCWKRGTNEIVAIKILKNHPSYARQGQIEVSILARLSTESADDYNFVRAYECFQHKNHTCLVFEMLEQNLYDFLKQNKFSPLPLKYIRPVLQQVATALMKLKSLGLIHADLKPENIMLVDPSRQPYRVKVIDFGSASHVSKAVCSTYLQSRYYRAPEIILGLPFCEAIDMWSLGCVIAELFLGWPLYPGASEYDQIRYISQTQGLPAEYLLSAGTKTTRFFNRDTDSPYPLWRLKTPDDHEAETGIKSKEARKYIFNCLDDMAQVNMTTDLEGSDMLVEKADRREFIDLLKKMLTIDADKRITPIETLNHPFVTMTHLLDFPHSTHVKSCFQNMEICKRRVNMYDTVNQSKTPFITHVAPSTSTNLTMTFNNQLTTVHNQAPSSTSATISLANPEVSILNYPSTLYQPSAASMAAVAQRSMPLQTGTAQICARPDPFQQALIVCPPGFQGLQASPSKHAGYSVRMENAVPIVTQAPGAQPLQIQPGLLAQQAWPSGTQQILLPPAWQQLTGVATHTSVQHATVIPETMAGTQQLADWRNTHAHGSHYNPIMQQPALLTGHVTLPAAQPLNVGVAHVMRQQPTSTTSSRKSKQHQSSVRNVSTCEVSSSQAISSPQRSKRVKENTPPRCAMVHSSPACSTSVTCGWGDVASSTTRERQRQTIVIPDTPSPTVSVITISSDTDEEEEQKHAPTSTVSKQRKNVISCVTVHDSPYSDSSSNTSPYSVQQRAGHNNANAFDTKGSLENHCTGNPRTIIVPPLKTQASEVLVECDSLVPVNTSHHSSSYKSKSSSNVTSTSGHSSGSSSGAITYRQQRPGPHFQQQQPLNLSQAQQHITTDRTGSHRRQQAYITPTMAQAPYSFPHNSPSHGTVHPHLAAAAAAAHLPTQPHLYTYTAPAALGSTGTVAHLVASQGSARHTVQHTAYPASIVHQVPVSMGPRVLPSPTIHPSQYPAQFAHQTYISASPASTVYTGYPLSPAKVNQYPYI
Chain of PRKAA1/AMPK111 (Q13131 whole entry, species assumed): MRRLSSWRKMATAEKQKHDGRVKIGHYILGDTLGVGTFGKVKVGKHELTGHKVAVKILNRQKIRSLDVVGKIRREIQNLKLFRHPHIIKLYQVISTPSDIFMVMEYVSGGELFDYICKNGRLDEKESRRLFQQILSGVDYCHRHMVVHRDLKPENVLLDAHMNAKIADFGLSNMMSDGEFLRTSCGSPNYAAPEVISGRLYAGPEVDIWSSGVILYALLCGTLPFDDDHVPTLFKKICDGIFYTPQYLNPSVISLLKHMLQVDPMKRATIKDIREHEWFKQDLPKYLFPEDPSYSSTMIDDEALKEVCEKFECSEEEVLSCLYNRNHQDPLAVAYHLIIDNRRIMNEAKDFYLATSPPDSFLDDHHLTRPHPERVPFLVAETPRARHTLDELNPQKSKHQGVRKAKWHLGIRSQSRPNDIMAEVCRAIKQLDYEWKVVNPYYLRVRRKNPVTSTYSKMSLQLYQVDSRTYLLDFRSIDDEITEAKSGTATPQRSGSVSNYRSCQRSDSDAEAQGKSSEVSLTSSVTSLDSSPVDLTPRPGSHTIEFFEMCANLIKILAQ
Chain of PRKAA1/AMPK111 (Q9Y478 whole entry partner, species assumed): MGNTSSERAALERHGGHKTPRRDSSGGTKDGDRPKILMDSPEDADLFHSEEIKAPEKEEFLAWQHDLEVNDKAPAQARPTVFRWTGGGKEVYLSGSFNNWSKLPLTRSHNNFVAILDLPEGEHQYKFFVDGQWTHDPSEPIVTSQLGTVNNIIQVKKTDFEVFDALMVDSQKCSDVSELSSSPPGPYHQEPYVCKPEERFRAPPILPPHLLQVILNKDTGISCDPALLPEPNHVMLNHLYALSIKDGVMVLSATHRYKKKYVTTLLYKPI
Chain of PRKAA1/AMPK111 (P54619 whole entry partner, species assumed): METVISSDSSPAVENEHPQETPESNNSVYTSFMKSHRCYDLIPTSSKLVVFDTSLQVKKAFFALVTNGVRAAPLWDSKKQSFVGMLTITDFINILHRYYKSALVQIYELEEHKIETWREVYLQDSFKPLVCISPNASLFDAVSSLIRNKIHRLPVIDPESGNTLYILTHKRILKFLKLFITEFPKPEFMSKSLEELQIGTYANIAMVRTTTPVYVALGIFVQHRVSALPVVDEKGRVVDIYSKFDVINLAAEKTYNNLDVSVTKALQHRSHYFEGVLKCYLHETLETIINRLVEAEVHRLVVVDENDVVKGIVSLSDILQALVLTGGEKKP

For `C=CC(=O)N1CCCC(c2c(F)cc(C(N)=O)c3[nH]c4c(c23)CCCCC4)C1` (single isomer, unassigned) [Compound 5-6], the inhibition at 1 µM in [1] was 19.7%; in [2], 4.2%; in [3], 25.9%; in test [4] it was 16.1%; in [5], 14.5%; in test [6], -18.6%. Besides, the inhibition at 1 µM in test [7] was 1.3%; in test [8], -13%; in test [9], -13.5%; in test [10] it was 10.6%; in test [11], 3.7%; in test [12], -6.1%. The inhibition at 1 µM in test [13] is 4.3%; in test [14], -7.9%.

Consider `C=CC(=O)N1CCC[C@@H](c2c(F)cc(C(N)=O)c3[nH]c4c(c23)CC2(CC4)CC2)C1` [Compound 6-2, (S)-5-(1-acryloylpiperidin-3-yl)-6-fluoro-1,2,4,9-tetrahydrospiro[carbazole-3,1′-cyclopropane]-8-carboxamide], for which the inhibition at 1 µM was -3.1% in test [1]; 11.7% in test [2]; 10% in test [3]; -0.2% in [4]; 12.4% in [5]; -55.4% in test [6]. Also, the inhibition at 1 µM in test [7] is 25.6%; in test [8], 32.1%; in test [9], 13.2%; in test [10] it was 13.2%; in [11], 1%; in test [12], -23.2%. Further, the values for the inhibition at 1 µM in test [13] and in test [14] were 10.7% and -27.1%, respectively.

As to `C=CC(=O)N1CCC[C@@H](c2c(F)cc(C(N)=O)c3[nH]c4c(c23)CCC4)C1` [Compound 10-2, (S)-8-(1-acryloylpiperidin-3-yl)-7-fluoro-1,2,3,4-tetrahydrocyclo-penta[b]indole-5-carboxamide], the inhibition at 1 µM was -8.1% in test [1]; 16.5% in [2]; -4.9% in test [3]; 6.6% in test [4]; -3.1% in test [5]; -66.1% in test [6]. For the same molecule, the inhibition at 1 µM in test [7] was 1.9%; in [8], -4%; in test [9] it was 2.2%; in test [10], 1.6%; in test [11] it was -3.1%; in [12], -21.2%. The inhibition at 1 µM came to 14.8% in test [13] and 20.5% in test [14].

The inhibition is the relative decrease from the control value, in per cent.
